From ChEMBL document CHEMBL3352029, “Ring fusion strategy for the synthesis of anthra[2,3-d]oxazole-2-thione-5,10-dione homologues as DNA topoisomerase inhibitors and as antitumor agents” (Eur J Med Chem, 2014)
Calls of active or inactive are those of the source. The rule behind the calls is not given here.

Assays:
NCI-H460 = experiment: Cytotoxicity against human NCI-H460 cells assessed as cell growth level at 10 uM after 48 hrs by sulforhodamine B assay; assay type: functional
HT-29 = experiment: Cytotoxicity against human HT-29 cells assessed as cell growth level at 10 uM after 48 hrs by sulforhodamine B assay; assay type: functional
RPMI-8226 = experiment: Cytotoxicity against human RPMI8226 cells assessed as cell growth level at 10 uM after 48 hrs by sulforhodamine B assay; assay type: functional
CCRF-CEM = experiment: Cytotoxicity against human CCRF-CEM cells assessed as cell growth level at 10 uM after 48 hrs by sulforhodamine B assay; assay type: functional
SN12C = experiment: Cytotoxicity against human SN12C cells assessed as cell growth level at 10 uM after 48 hrs by sulforhodamine B assay; assay type: functional
MCF7 = experiment: Cytotoxicity against human MCF7 cells assessed as cell growth level at 10 uM after 48 hrs by sulforhodamine B assay; assay type: functional
[1] = Cytotoxicity against human PC3 cells assessed as cell growth level at 10 uM after 48 hrs by sulforhodamine B assay; assay type: functional, PC-3
KM12 = experiment: Cytotoxicity against human KM12 cells assessed as cell growth level at 10 uM after 48 hrs by sulforhodamine B assay; assay type: functional
NCI-H522 = experiment: Cytotoxicity against human NCI-H522 cells assessed as cell growth level at 10 uM after 48 hrs by sulforhodamine B assay; assay type: functional
[2] = Cytotoxicity against human PC3 cells assessed as inhibition of cell growth after 48 hrs by sulforhodamine B assay; assay type: functional, cell-based; details: PC-3, 48 h
[3] = Cytotoxicity against human UO31 cells assessed as cell growth level at 10 uM after 48 hrs by sulforhodamine B assay; assay type: functional, UO-31
SNB-19 = experiment: Cytotoxicity against human SNB19 cells assessed as cell growth level at 10 uM after 48 hrs by sulforhodamine B assay; assay type: functional
Malme-3M = experiment: Cytotoxicity against human MALME-3M cells assessed as cell growth level at 10 uM after 48 hrs by sulforhodamine B assay; assay type: functional
[4] = target: T1, DNA topoisomerase 1 (Homo sapiens) (UniProt P11387); experiment: Inhibition of human recombinant DNA topoisomerase 1 assessed as reduction in relaxation of supercoiled pHOT DNA at 6.25 to 25 uM incubated for 45 mins by ethidium bromide staining based gel electrophoresis
T1 sequence (whole entry): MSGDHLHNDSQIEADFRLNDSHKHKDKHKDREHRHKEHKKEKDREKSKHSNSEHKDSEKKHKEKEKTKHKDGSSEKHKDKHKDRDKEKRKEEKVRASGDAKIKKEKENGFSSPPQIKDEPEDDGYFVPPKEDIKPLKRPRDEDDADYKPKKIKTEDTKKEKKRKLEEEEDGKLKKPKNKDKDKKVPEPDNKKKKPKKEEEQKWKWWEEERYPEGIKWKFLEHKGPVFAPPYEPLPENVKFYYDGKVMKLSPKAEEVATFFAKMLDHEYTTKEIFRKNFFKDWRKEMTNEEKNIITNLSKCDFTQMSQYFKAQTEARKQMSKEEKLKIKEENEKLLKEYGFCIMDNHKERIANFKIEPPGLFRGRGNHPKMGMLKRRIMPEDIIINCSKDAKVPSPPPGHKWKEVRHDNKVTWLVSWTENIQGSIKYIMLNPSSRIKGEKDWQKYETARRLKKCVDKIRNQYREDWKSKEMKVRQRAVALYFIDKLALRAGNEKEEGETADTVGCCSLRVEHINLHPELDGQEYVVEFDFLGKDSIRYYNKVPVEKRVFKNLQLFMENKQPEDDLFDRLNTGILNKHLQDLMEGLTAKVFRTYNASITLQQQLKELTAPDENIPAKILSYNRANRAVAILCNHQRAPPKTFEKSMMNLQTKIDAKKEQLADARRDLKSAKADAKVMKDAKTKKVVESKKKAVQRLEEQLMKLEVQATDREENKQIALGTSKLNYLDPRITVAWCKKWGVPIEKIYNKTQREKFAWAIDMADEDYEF

[5] = target: T1, DNA topoisomerase 1 (Homo sapiens); experiment: Inhibition of human recombinant DNA topoisomerase 1 assessed as reduction in relaxation of supercoiled pHOT DNA at 25 to 50 uM incubated for 45 mins by ethidium bromide staining based gel electrophoresis

O=C1c2ccccc2C(=O)c2cc3oc(SCc4ccc(F)cc4)nc3cc21
Activity (NCI-H460): 84.05% | Activity (HT-29): 91.18% | Activity (RPMI-8226): 96.5% | Activity (CCRF-CEM): 86.28% | Activity (SN12C): 92.48% | Activity (MCF7): 80.56% | Activity [1]: 88.52% | Activity (KM12): 104.72% | Activity (NCI-H522): 80.08% | IC50 [2]: > 30 µM | Activity [3]: 77.49% | Activity (SNB-19): 104.56% | Activity (Malme-3M): 89.8%

CCSc1nc2cc3c(cc2o1)C(=O)c1ccccc1C3=O
Activity (NCI-H460): 100.33% | Activity (HT-29): 89.08% | Activity (RPMI-8226): 91.04% | Activity (CCRF-CEM): 90.48% | Activity (SN12C): 98.57% | Activity (MCF7): 81.27% | Activity [1]: 84.23% | Activity (KM12): 101.43% | Activity (NCI-H522): 80.08% | IC50 [2]: > 30 µM | Activity [3]: 57.94% | Activity (SNB-19): 99.9% | Activity (Malme-3M): 91.75%

CN(C)CCCSc1nc2cc3c(cc2o1)C(=O)c1ccccc1C3=O
Activity (NCI-H460): 60.58% | Activity (HT-29): 64.03% | Activity (RPMI-8226): 84.91% | Activity (CCRF-CEM): 55.33% | Activity (SN12C): 88.52% | Activity (MCF7): 52.24% | Activity [1]: 85.96% | Activity (KM12): 82.13% | inhibition [4]: Dose-dependent effect | Activity (NCI-H522): 70.64% | inhibition [5]: Active | IC50 [2]: 16 µM | Activity [3]: 59.82% | Activity (SNB-19): 90.07% | Activity (Malme-3M): 101.35%
